Assay results taken from the supplement of paper PMC11061612.

Assays:
Test in all cases: Bliss excess, mean over the matrix (fraction); higher = more synergy
DSH1 (Bladder Carcinoma) = tested on: DSH1 (Bladder Carcinoma)
In short: (§1)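 Bliss excess equals the observed combination effect minus the expected value EA + EB − EA·EB, where EA and EB are the effects of each agent alone. Combination Emax is the second-highest inhibition within the matrix. Inhibition was scaled from CellTiter-Glo 2.0 luminescence, with 0 set by vehicle wells and 1 by blank wells, after 72 hours of two-drug dosing of cells plated in 1536-well plates.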

[1] = tested on: 697 (B-Lymphoblastic Leukemia)
In short: as §1

ES7 (Ewing's Sarcoma) = tested on: ES7 (Ewing's Sarcoma)
In short: as §1

[2] = tested on: KM-H2 (Hodgkin's Lymphoma)
In short: as §1

[3] = tested on: C3A (Hepatocellular Carcinoma)
In short: as §1

SN12C (Kidney Carcinoma) = tested on: SN12C (Kidney Carcinoma)
In short: as §1

[4] = tested on: DOV13 (Ovarian Carcinoma)
In short: as §1

[5] = tested on: SW780 (Bladder Carcinoma)
In short: as §1

RH-1 (Ewing's Sarcoma) = tested on: RH-1 (Ewing's Sarcoma)
In short: as §1

[6] = tested on: NCI-H1299 (Non-Small Cell Lung Carcinoma)
In short: as §1

SK-N-FI (Neuroblastoma) = tested on: SK-N-FI (Neuroblastoma)
In short: as §1

[7] = tested on: EM-2 (Chronic Myelogenous Leukemia)
In short: as §1

[8] = tested on: OCI-AML2 (Acute Myeloid Leukemia)
In short: as §1

[9] = tested on: G-292-Clone-A141B1 (Osteosarcoma)
In short: as §1

[10] = tested on: MFH-ino (Other Solid Carcinomas)
In short: as §1

[11] = tested on: HPAC (Pancreatic Carcinoma)
In short: as §1

NCI-H2595 (Mesothelioma) = tested on: NCI-H2595 (Mesothelioma)
In short: as §1

[12] = tested on: DB (B-Cell Non-Hodgkin's Lymphoma)
In short: as §1

[13] = tested on: NCI-H1781 (Lung Adenocarcinoma)
In short: as §1

[14] = tested on: KARPAS-1106P (B-Cell Non-Hodgkin's Lymphoma)
In short: as §1

| Structure (SMILES) | Bliss excess (DSH1 (Bladder Carcinoma)) | Bliss excess [1] | Bliss excess (ES7 (Ewing's Sarcoma)) | Bliss excess [2] | Bliss excess [3] | Bliss excess (SN12C (Kidney Carcinoma)) | Bliss excess [4] | Bliss excess [5] | Bliss excess (RH-1 (Ewing's Sarcoma)) | Bliss excess [6] | Bliss excess (SK-N-FI (Neuroblastoma)) | Bliss excess [7] | Bliss excess [8] | Bliss excess [9] | Bliss excess [10] | Bliss excess [11] | Bliss excess (NCI-H2595 (Mesothelioma)) | Bliss excess [12] | Bliss excess [13] | Bliss excess [14] |
| --- | --- | --- | --- | --- | --- | --- | --- | --- | --- | --- | --- | --- | --- | --- | --- | --- | --- | --- | --- | --- |
| CCN(CCO)CCCOc1ccc2c(Nc3cc(CC(=O)Nc4cccc(F)c4)[nH]n3)ncnc2c1 [AZD2811] + O=C(c1cc(Cc2n[nH]c(=O)c3ccccc23)ccc1F)N1CCN(C(=O)C2CC2)CC1 [Olaparib] (first compound max 1 µM, 7x7, partner max 10 µM) | 0.0082 | 0.0165 | -0.0184 | 0.0789 | -0.0495 | 0.0151 | -0.0824 | 0.02 | -0.0451 | -0.0131 | -0.0001 | -0.0589 | -0.0351 | 0.0252 | -0.0318 | 0.0032 | 0.0072 | -0.0544 | -0.0293 | -0.0229 |
| CN(CCO)CC[C@H](CSc1ccccc1)Nc1ccc(S(=O)(=O)NC(=O)c2ccc(N3CCC([C@@H](O)c4ccccc4-c4ccc(Cl)cc4)CC3)cc2)cc1S(=O)(=O)C(F)(F)F [AZD4320] + C1CN(CCC1(C(=O)N[C@@H](CCO)C2=CC=C(C=C2)Cl)N)C3=NC=NC4=C3C=CN4 [Capivasertib] (first compound max 1 µM, 7x7, partner max 3 µM) | -0.0038 | -0.0179 | 0.0083 | -0.0205 | -0.0904 | -0.0636 | 0.0131 | -0.053 | 0.0468 | -0.029 | -0.0158 | 0.0261 | -0.0333 | -0.0041 | -0.0527 | -0.0571 | -0.0458 | -0.0196 | -0.0313 | -0.0259 |
| CN(CCO)CC[C@H](CSc1ccccc1)Nc1ccc(S(=O)(=O)NC(=O)c2ccc(N3CCC([C@@H](O)c4ccccc4-c4ccc(Cl)cc4)CC3)cc2)cc1S(=O)(=O)C(F)(F)F [AZD4320] + C=CCn1c(=O)c2cnc(Nc3ccc(N4CCN(C)CC4)cc3)nc2n1-c1cccc(C(C)(C)O)n1 [AZD1775] (first compound max 1 µM, partner max 1 µM) | 0.0646 | 0.0545 | 0.136 | -0.006 | -0.0619 | -0.0099 | 0.0352 | 0.0079 | 0.0413 | -0.0107 | -0.0331 | -0.0381 | 0.0312 | 0.0335 | -0.0288 | -0.0048 | -0.0113 | 0.0616 | -0.003 | 0.028 |
| CN(CCO)CC[C@H](CSc1ccccc1)Nc1ccc(S(=O)(=O)NC(=O)c2ccc(N3CCC([C@@H](O)c4ccccc4-c4ccc(Cl)cc4)CC3)cc2)cc1S(=O)(=O)C(F)(F)F [AZD4320] + CCN(CCO)CCCOc1ccc2c(Nc3cc(CC(=O)Nc4cccc(F)c4)[nH]n3)ncnc2c1 [AZD2811] (first compound max 1 µM, 7x7, partner max 1 µM) | 0.0821 | 0.0021 | 0.0493 | -0.0035 | -0.0487 | -0.0249 | 0.0816 | 0.028 | -0.0551 | -0.0237 | -0.022 | -0.0327 | 0.0189 | 0.0019 | -0.0406 | 0.0486 | -0.032 | 0.0983 | -0.0788 | 0.0326 |
| CN(CCO)CC[C@H](CSc1ccccc1)Nc1ccc(S(=O)(=O)NC(=O)c2ccc(N3CCC([C@@H](O)c4ccccc4-c4ccc(Cl)cc4)CC3)cc2)cc1S(=O)(=O)C(F)(F)F [AZD4320] + CN(C)CCCOc1ccc(-c2ccc3ncc4c(c3c2)n(C2CCOCC2)c(=O)n4C)cn1 [AZD0156] (first compound max 1 µM, 7x7, partner max 1 µM) | 0.0303 | -0.0116 | 0.0177 | -0.0038 | -0.0281 | -0.0633 | -0.0021 | -0.0392 | -0.024 | -0.0462 | -0.0252 | -0.0192 | -0.0296 | -0.015 | -0.059 | -0.0709 | -0.0348 | 0.0373 | -0.0694 | -0.0055 |
| CN(CCO)CC[C@H](CSc1ccccc1)Nc1ccc(S(=O)(=O)NC(=O)c2ccc(N3CCC([C@@H](O)c4ccccc4-c4ccc(Cl)cc4)CC3)cc2)cc1S(=O)(=O)C(F)(F)F [AZD4320] + C[C@@H]1COCCN1C2=NC(=NC(=C2)C3(CC3)[S@](=N)(=O)C)C4=C5C=CNC5=NC=C4 [AZD6738] (first compound max 1 µM, 7x7, partner max 10 µM) | 0.0405 | 0.013 | 0.0638 | 0.0381 | -0.016 | -0.0499 | -0.0448 | -0.0478 | 0.0321 | -0.016 | -0.0299 | 0.005 | 0.0397 | -0.0265 | -0.0785 | -0.007 | -0.0222 | 0.0249 | -0.0005 | -0.0301 |
| CN(CCO)CC[C@H](CSc1ccccc1)Nc1ccc(S(=O)(=O)NC(=O)c2ccc(N3CCC([C@@H](O)c4ccccc4-c4ccc(Cl)cc4)CC3)cc2)cc1S(=O)(=O)C(F)(F)F [AZD4320] + C[C@@H](Nc1cc(F)cc(F)c1)c1cc(C(=O)N(C)C)cc2c(=O)cc(N3CCOCC3)oc12 [AZD8186] (first compound max 1 µM, 7x7, partner max 3 µM) | -0.0381 | -0.003 | 0.136 | 0.0237 | 0.0183 | -0.0193 | -0.0141 | 0.0084 | 0.0588 | 0.0118 | -0.0165 | 0.0055 | 0.0556 | -0.0014 | -0.0163 | -0.0014 | 0.0344 | -0.0096 | 0.0358 | 0.0758 |
| CN(CCO)CC[C@H](CSc1ccccc1)Nc1ccc(S(=O)(=O)NC(=O)c2ccc(N3CCC([C@@H](O)c4ccccc4-c4ccc(Cl)cc4)CC3)cc2)cc1S(=O)(=O)C(F)(F)F [AZD4320] + Cc1cc2ncnn2cc1Nc1ncc2c(n1)n(C1CCOCC1)c(=O)n2C [AZD7648] (first compound max 1 µM, 7x7, partner max 10 µM) | -0.0266 | -0.0305 | -0.0455 | -0.0231 | -0.0546 | -0.0578 | -0.0588 | -0.0578 | -0.0018 | -0.0408 | -0.0203 | 0.0184 | 0.0136 | -0.032 | -0.0545 | -0.0292 | -0.0214 | -0.0149 | -0.0388 | 0.0101 |
| CN(CCO)CC[C@H](CSc1ccccc1)Nc1ccc(S(=O)(=O)NC(=O)c2ccc(N3CCC([C@@H](O)c4ccccc4-c4ccc(Cl)cc4)CC3)cc2)cc1S(=O)(=O)C(F)(F)F [AZD4320] + Cn1cnc2c(F)c(Nc3ccc(Br)cc3Cl)c(C(=O)NOCCO)cc21 [Selumetinib] (first compound max 1 µM, 7x7, partner max 3 µM) | -0.0405 | 0.0943 | 0.026 | 0.0106 | 0.141 | -0.0015 | -0.114 | 0.0441 | 0.0015 | 0.0505 | 0.0296 | 0.007 | 0.0207 | -0.0021 | -0.03 | 0.0371 | 0.04 | -0.0482 | 0.0131 | -0.0007 |
| COc1nnc2ccc(N3CCC(c4ccc(OCCN5CCN(C)C(=O)[C@H]5C)cc4)CC3)nn12 [AZD5153] + C=CCn1c(=O)c2cnc(Nc3ccc(N4CCN(C)CC4)cc3)nc2n1-c1cccc(C(C)(C)O)n1 [AZD1775] (first compound max 1 µM, partner max 1 µM) | -0.132 | -0.0478 | -0.0364 | -0.101 | 0.0547 | -0.128 | -0.0561 | -0.0163 | -0.0406 | -0.0278 | -0.105 | -0.0217 | -0.0293 | -0.0475 | -0.0837 | -0.111 | -0.0353 | -0.0996 | -0.0744 | -0.0966 |
| COc1nnc2ccc(N3CCC(c4ccc(OCCN5CCN(C)C(=O)[C@H]5C)cc4)CC3)nn12 [AZD5153] + CC1(C)CCC(CN2CCN(c3ccc(C(=O)NS(=O)(=O)c4ccc(NCC5CCOCC5)c([N+](=O)[O-])c4)c(Oc4cnc5[nH]ccc5c4)c3)CC2)=C(c2ccc(Cl)cc2)C1 [Venetoclax] (first compound max 1 µM, 7x7, partner max 1 µM) | -0.0524 | -0.0358 | -0.0694 | 0.0245 | -0.105 | -0.0343 | -0.0751 | -0.0071 | -0.0391 | -0.0496 | -0.0581 | -0.0384 | -0.0422 | -0.0571 | -0.0608 | -0.0507 | 0.0185 | -0.0114 | -0.0599 | -0.0308 |
